These results are taken from paper PMC2956513, “Novel tricyclic pyrazole BRAF inhibitors with imidazole or furan central scaffolds” (Bioorganic & Medicinal Chemistry, 2010).

In one data set the target is V600EBRAF (Homo sapiens, UniProt P15056, V600E). Description: V600EBRAF kinase assay (MEK1/2 phosphorylation as endpoint). The following applies: for pIC50: isolated full length V600EBRAF kinase activity; for BRAF activity in words: BRAF IC50 assay. It is filed as biochemical. The procedure:
(§1) The biological activities of compounds 1a–p were assessed in three assays: • (1) Inhibition of the isolated ^V600EBRAF kinase activity (IC50 BRAF), measuring MEK1/2 phosphorylation as the endpoint.[15] […] We measured the IC50 BRAF values in this paper, since they represent the inhibition of BRAF function which we consider more meaningful than the binding of inhibitor to BRAF. • (2) Inhibition of ^V600EBRAF-dependent ERK phosphorylation in WM266.4 melanoma cells (IC50 pERK). • (3) Growth inhibition of WM266.4 melanoma cells measured by sulforhodamine-B (GI50 SRB).
(§2) These assays have been described by Niculescu-Duvaz et al.[15]

Data set [1] deals with V600EBRAF-dependent ERK phosphorylation in WM266.4 melanoma cells. Kind of data set: Phospho-ERK IC50 assay in WM266.4 cells. As to conditions: for pIC50: Homo sapiens, WM 266-4, 6 h incubation, read-out: IC50 ppERK. In kind it is cell-based, human. Here is the method:
as §1
To determine the effect of compounds on BRAF activity in cells, WM266.4 cells were seeded at a density of 3 × 10^4 cells per well of a 96 well plate. The following day, test compounds were diluted into growth medium to 2× the desired final concentration and then added directly to the cells. After a 6 h incubation, the medium was removed and cells were fixed and permeabilized in 4% formaldehyde, 0.1% triton X-100 in PBS for 30 min. The wells were then blocked with 5% milk in PBS for 30 min at room temperature, followed by the addition of an antibody for phospho-ERK1/2 (Sigma, Dorset, UK) at […] in blocking solution. Plates were incubated for 3 h with shaking. Plates were washed three times with 0.1% Tween 20 using an ELx50 plate washer (BioTek, Winooski, USA). […] of a Europium-labelled anti-mouse secondary antibody (Perkin Elmer, Turku, Finland) was added to the wells in DELFIA assay buffer for 1 h. Plates were washed again and Enhancement solution was added to the wells and time resolved fluorescence was measured as instructed by the manufacturer after 20 min using a Spectramax M5 plate reader (Molecular Devices, Berkshire, UK). The plates were washed again and BCA protein assay reagent (Sigma, Dorset, UK) was added to the wells and incubated for 30 min at 37 °C. Absorbance at 570 nm was measured using a plate reader and used to normalize the fluorescence data. Inhibition of ERK phosphorylation was determined as a percentage of DMSO-treated cells and IC50 values were calculated using Prism (GraphPad Software, San Diego, USA).

In another data set the test system is WM266.4 melanoma cells. Kind of data set: Growth inhibition of WM266.4 cells by sulforhodamine-B (SRB). It is filed as cell-based, human. As to conditions: for GI50 / GI50 SRB activity in words: WM266.4 cells; for GI50: sulforhodamine-B. Here is the method: as §1, §2
For another data set, the target named is BRAF (Homo sapiens, UniProt P15056). Description: BRAF fluorescent ligand binding assay. The following applies: alternative BRAF fluorescent ligand binding assay.
The nature of data set [2]: PK assessment in mice after intraperitoneal administration. In kind it is in vivo, mouse. As to conditions: CD1 nu/nu female mice, intraperitoneal 4 mg/kg, cassette dosing. The procedure: The apparent clearance, half-life (t1/2) and maximal plasma concentration of a representative tricyclic pyrazole, compound 1h, were determined in vivo in CD1 nu/nu female mice following an intraperitoneal administration of 1h.
Female Crl:CD1-Foxn1nu mice at least six weeks of age bearing mutant BRAF WM266.4 human tumor xenografts were used for the PK analyses. The mice were dosed intraperitoneally (4 mg/kg, equivalent to ca. 8 μmol/kg, 10 ml/kg, in 10% ethanol:40% PEG:50% Gelofusine v/v) in a cassette with 4 other compounds. Samples were taken at 8 time-points between 15 min and 24 h. Three mice were utilized per time-point. They were placed under isoflurane anaesthesia and blood for plasma preparation was taken by terminal cardiac puncture into heparinized syringes. Plasma samples were snap frozen in liquid nitrogen and then stored at −70 °C prior to analysis. All procedures involving animals were performed in accordance with national Home Office regulations under the Animals (Scientific Procedures) Act 1986 and within guidelines set out by the Institute’s Animal Ethics Committee and the United Kingdom Coordinating Committee for Cancer Research’s ad hoc Committee on the Welfare of Animals in Experimental Neoplasia.

One may read the pIC50 as −log10 of the IC50, conventionally taken in molar units. A word on the GI50: it is the concentration giving 50% growth inhibition. The pKd is the Kd on a negative log10 scale, so that one unit is a factor of ten.

pIC50, pKd: −log10 of the molar value.

Chain of V600EBRAF (P15056 whole entry V600E): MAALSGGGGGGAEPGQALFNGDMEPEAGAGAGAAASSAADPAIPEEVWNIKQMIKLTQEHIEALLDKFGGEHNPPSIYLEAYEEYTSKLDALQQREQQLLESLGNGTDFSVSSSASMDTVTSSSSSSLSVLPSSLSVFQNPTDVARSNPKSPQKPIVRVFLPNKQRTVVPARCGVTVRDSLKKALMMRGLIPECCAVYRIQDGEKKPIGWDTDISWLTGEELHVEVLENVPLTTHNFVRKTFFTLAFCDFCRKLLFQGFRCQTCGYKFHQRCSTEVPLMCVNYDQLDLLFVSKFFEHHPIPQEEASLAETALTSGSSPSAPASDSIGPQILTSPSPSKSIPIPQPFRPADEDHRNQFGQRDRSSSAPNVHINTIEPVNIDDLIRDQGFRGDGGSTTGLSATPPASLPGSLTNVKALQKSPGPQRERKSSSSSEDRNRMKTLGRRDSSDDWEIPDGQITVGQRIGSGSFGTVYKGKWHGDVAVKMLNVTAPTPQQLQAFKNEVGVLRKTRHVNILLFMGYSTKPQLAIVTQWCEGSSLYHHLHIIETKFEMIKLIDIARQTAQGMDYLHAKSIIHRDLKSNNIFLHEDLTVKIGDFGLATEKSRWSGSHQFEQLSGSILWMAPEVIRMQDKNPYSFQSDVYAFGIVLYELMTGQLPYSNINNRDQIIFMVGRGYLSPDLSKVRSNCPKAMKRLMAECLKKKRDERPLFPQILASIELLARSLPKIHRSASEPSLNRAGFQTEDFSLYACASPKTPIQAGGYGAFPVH
Chain of BRAF (P15056 whole entry): as the sequence (P15056 whole entry V600E) above, with E600V counted along it

With `CN1CCN(C(=O)c2cc(-c3ccc4c(c3)Cc3cn[nH]c3-4)c(-c3ccncc3)o2)CC1` [1o, [4-(2,4-Dihydro-indeno[1,2-c]pyrazol-6-yl)-5-pyridin-4-yl-furan-2-yl]-(4-methyl-piperazin-1-yl)-methanone], the negative-log IC50 (pIC50) on V600EBRAF was 5.12; in data set [1], 6.14. Moreover, in the data set on WM266.4 melanoma cells (Homo sapiens, WM 266-4), the GI50 was 1910 nM.

For the compound `Cc1c[nH]nc1-c1ccc(-c2nc(-c3ccc(OCCN(C)C)cc3)[nH]c2-c2ccncc2)cc1` [1b, Dimethyl-[2-(4-{5-[4-(4-methyl-1H-pyrazol-3-yl)-phenyl]-4-pyridin-4-yl-1H-imidazol-2-yl}-phenoxy)-ethyl]-amine], the results for the pIC50 (against V600EBRAF; in data set [1]) were 5.92 and 5.69, respectively. In the data set with WM266.4 melanoma cells (Homo sapiens, WM 266-4), the concentration for 50% growth inhibition (GI50) came to 3900 nM.

On to `CN(C)CCOc1ccc(-c2nc(-c3ccc(-c4cc[nH]n4)cc3)c(-c3ccncc3)[nH]2)cc1` [1a, Dimethyl-[2-(4-{5-[4-(1H-pyrazol-3-yl)-phenyl]-4-pyridin-4-yl-1H-imidazol-2-yl}-phenoxy)-ethyl]-amine], for which the values for the pIC50 (at V600EBRAF; in data set [1]) were 5.80 and 5.24, respectively. The GI50 in the data set on WM266.4 melanoma cells (Homo sapiens, WM 266-4) was 7400 nM.

On to `c1cc(-c2[nH]c(C3CCNCC3)nc2-c2ccc3c(c2)Cc2cn[nH]c2-3)ccn1` [1k, 6-(2-Piperidin-4-yl-5-pyridin-4-yl-3H-imidazol-4-yl)-2,4-dihydro-indeno[1,2-c]pyrazole], for which the negative logarithm of the IC50 (pIC50) against V600EBRAF is 5.88; in data set [1], 5.31. The compound further came in with a GI50 in the data set on WM266.4 melanoma cells (Homo sapiens, WM 266-4) of 36000 nM.

Turning to `CN(C)CCN1CCN(C(=O)c2cc(-c3ccc4c(c3)Cc3cnn(C)c3-4)c(-c3ccncc3)o2)CC1` [1p, [4-(2-Dimethylamino-ethyl)-piperazin-1-yl]-[4-(1-methyl-1,4-dihydro-indeno [1,2-c]pyrazol-6-yl)-5-pyridin-4-yl-furan-2-yl]-methanone], the pIC50 (at V600EBRAF; in data set [1]) was less than 5.00 throughout.

As to `CN(C)CCOc1ccc(-c2nc(-c3ccc4c(c3)Cc3cn[nH]c3-4)c(-c3ccncc3)[nH]2)cc1` [1h, (2-{4-[5-(2,4-Dihydro-indeno[1,2-c]pyrazol-6-yl)-4-pyridin-4-yl-1H-imidazol-2-yl]-phenoxy}-ethyl)-dimethyl-amine], the pIC50 was 6.64 at V600EBRAF; 5.96 in data set [1]; 5.96 with WM266.4 melanoma cells (Homo sapiens, WM 266-4, SRB cellular IC50, value in PK text). For the same compound, the GI50 in the data set with WM266.4 melanoma cells (Homo sapiens, WM 266-4) was determined as 1150 nM. At BRAF, this compound gave a pKd of 8.21. In data set [2] (CD1 nu/nu (Crl:CD1-Foxn1nu), mouse, ip, plasma, read-out: half-life (T1/2) (converted)), the half-life is 3.9 h. Moreover, in data set [2] (CD1 nu/nu (Crl:CD1-Foxn1nu), mouse, ip, plasma, read-out: maximal plasma concentration (Cmax)), the Cmax turned out to be 5.8 µM. Also, the “plasma clearance (CL)” value in data set [2] (apparent clearance) was determined as 11 mL/min/kg.

As to `CN(C)CCOc1ccc(-c2nc(-c3ccc4c(c3)Cc3nn[nH]c3-4)c(-c3ccncc3)[nH]2)cc1` [1i, (2-{4-[5-(3,8-Dihydro-indeno[1,2-d] [1,2,3]triazol-6-yl)-4-pyridin-4-yl-1H-imidazol-2-yl]-phenoxy}-ethyl)-dimethyl-amine], the “BRAF activity in words” value at V600EBRAF was “inactive”. Moreover, the negative logarithm of the IC50 (pIC50) was less than 5.00 against V600EBRAF and 5.36 in data set [1].

Consider `CN(C)CCN1CCN(C(=O)c2cc(-c3ccc4c(c3)Cc3cn[nH]c3-4)c(-c3ccncc3)o2)CC1` [1l, [4-(2,4-Dihydro-indeno[1,2-c]pyrazol-6-yl)-5-pyridin-4-yl-furan-2-yl]-[4-(2-dimethylamino-ethyl)-piperazin-1-yl]-methanone], for which the pIC50 against V600EBRAF is 5.44; in data set [1], 6.13. The compound further gave a 50% growth inhibitory concentration (GI50) with WM266.4 melanoma cells (Homo sapiens, WM 266-4) of 1610 nM.

For `CN(C)CCOc1ccc(-c2nc(-c3ccc4c(c3)CC3CC(=O)NN=C43)c(-c3ccncc3)[nH]2)cc1` (centres unmarked) [1g, 7-{2-[4-(2-Dimethylamino-ethoxy)-phenyl]-5-pyridin-4-yl-1H-imidazol-4-yl}-2,4,4a,5-tetrahydro-indeno[1,2-c]pyridazin-3-one], the negative-log IC50 (pIC50) on V600EBRAF was less than 5.00; in data set [1] it was 4.00. The compound also had a GI50 in the data set on WM266.4 melanoma cells (Homo sapiens, WM 266-4) of 8900 nM.

Regarding `CN(C)CCOc1ccc(-c2nc(-c3ccc4c(c3)CCc3cn[nH]c3-4)c(-c3ccncc3)[nH]2)cc1` [1e, (2-{4-[5-(4,5-Dihydro-2H-benzo[g]indazol-7-yl)-4-pyridin-4-yl-1H-imidazol-2-yl]-phenoxy}-ethyl)-dimethyl-amine], the pIC50 was 5.74 at V600EBRAF and 5.24 in data set [1].

On to `CN(C)CCOc1ccc(-c2nc(-c3ccc(-c4n[nH]cc4Cl)cc3)c(-c3ccncc3)[nH]2)cc1` [1d, [2-(4-{5-[4-(4-Chloro-1H-pyrazol-3-yl)-phenyl]-4-pyridin-4-yl-1H-imidazol-2-yl}-phenoxy)-ethyl]-dimethyl-amine], for which the pIC50 against V600EBRAF was 5.43; in data set [1] it was 5.00. For the same compound, the 50% growth inhibitory concentration (GI50) with WM266.4 melanoma cells (Homo sapiens, WM 266-4) was determined as 4100 nM.

For the compound `O=C(c1cc(-c2ccc3c(c2)Cc2cn[nH]c2-3)c(-c2ccncc2)o1)N1CCNCC1` [1n, [4-(2,4-Dihydro-indeno[1,2-c]pyrazol-6-yl)-5-pyridin-4-yl-furan-2-yl]-piperazin-1-yl-methanone], the pIC50 against V600EBRAF was 5.56; in data set [1], 6.01. Further, it took 1590 nM to inhibit growth with WM266.4 melanoma cells (Homo sapiens, WM 266-4) by half (GI50).

Regarding `CN(C)CCOc1ccc(-c2nc(-c3ccc(-c4n[nH]cc4C#N)cc3)c(-c3ccncc3)[nH]2)cc1` [1c, 3-(4-{2-[4-(2-Dimethylamino-ethoxy)-phenyl]-5-pyridin-4-yl-3H-imidazol-4-yl}-phenyl)-1H-pyrazole-4-carbonitrile], the negative-log IC50 (pIC50) against V600EBRAF was less than 5.00; in data set [1] it was less than 4.00. The compound also registered a GI50 in the data set with WM266.4 melanoma cells (Homo sapiens, WM 266-4) of 11000 nM.

Regarding `CN(C)CCOc1ccc(-c2nc(-c3ccc4c(ccc5cn[nH]c54)c3)c(-c3ccncc3)[nH]2)cc1` [1f, (2-{4-[4-(1H-Benzo[g]indazol-7-yl)-5-pyridin-4-yl-1H-imidazol-2-yl]-phenoxy}-ethyl)-dimethyl-amine], the negative logarithm of the IC50 (pIC50) at V600EBRAF was 5.77; in data set [1] it was 4.60. In the data set on WM266.4 melanoma cells (Homo sapiens, WM 266-4), this compound returned a concentration for 50% growth inhibition (GI50) of 3300 nM.

Turning to `CN1CCN(c2ccc(-c3nc(-c4ccc5c(c4)Cc4cn[nH]c4-5)c(-c4ccncc4)[nH]3)cc2)CC1` [1j, 6-{2-[4-(4-Methyl-piperazin-1-yl)-phenyl]-5-pyridin-4-yl-3H-imidazol-4-yl}-2,4-dihydro-indeno[1,2-c]pyrazole], on V600EBRAF, the “BRAF activity in words” value was “submicromolar activity” and the pIC50 is 6.62. For the same compound, in data set [1], the “IC50 ppERK activity in words” value was “submicromolar activity” and the pIC50 was 6.24. In the data set on WM266.4 melanoma cells (Homo sapiens, WM 266-4), it took 870 nM to inhibit growth by half (GI50). Further, in the data set with WM266.4 melanoma cells, the “GI50 SRB activity in words” value is reported as “submicromolar activity”.

For `O=C(c1cc(-c2ccc3c(c2)Cc2cn[nH]c2-3)c(-c2ccncc2)o1)N1CCOCC1` [1m, [4-(2,4-Dihydro-indeno[1,2-c]pyrazol-6-yl)-5-pyridin-4-yl-furan-2-yl]-morpholin-4-yl-methanone], at V600EBRAF, the pIC50 is 5.67. Further, in data set [1], the “IC50 ppERK activity in words” value is reported as “submicromolar activity” and the pIC50 was 6.08. In the data set on WM266.4 melanoma cells (Homo sapiens, WM 266-4), this compound registered a GI50 of 940 nM. For the same compound, in the data set with WM266.4 melanoma cells, the “GI50 SRB activity in words” value is “submicromolar activity”.
